Test results from patent publication US12622891B2, “AMP-activated protein kinase activator” (KYOTO PHARMACEUTICAL UNIVERSITY, priority 2021, dated 2026).

Legend:
[1] = system: human glioblastoma cell line U251; experiment: Proliferation of human glioblastoma U251 cells, compound alone or combined with temozolomide (viable cell count, CI/isobologram); assay type: cell-based; conditions: temozolomide 12.5, 25, 50 μM with compound 25, 50, 100 nM, 6 days; CI < 0.9 = synergistic; FIG. 2
Experimental: According to the method described in a literature (Matsumura K, et al. BMC Cancer (2016) 16(1):748.), human glioblastoma cell line U251 was cultured in a 5% CO2 incubator at 37° C. using DMEM (FUJIFILM Wako Pure Chemical Corporation, Japan) supplemented with 10% bovine fetal serum (FBS, HyClone, GE Healthcare Life Sciences, Buckinghamshire, England) and 1% penicillin/streptomycin (FUJIFILM Wako Pure Chemical Corporation, respectively 100 units/mL, 100 μg/mL). Temozolomide (Sigma Chemical, St. Louis, MO, USA) which is used as a standard drug for the treatment of glioblastoma was dissolved at 200 mM using dimethyl sulfoxide (Nacalai Tesque, Kyoto, Japan) as a solvent. […] Proliferation of these cells was evaluated using Trypan blue (FUJIFILM Wako Pure Chemical Corporation, Japan) staining method and counting the number of viable cells using a Countess II automatic cell counter (Thermo Fisher Scientific, Waltham, MA). Combination index (CI) values of temozolomide and the compound of the present invention were calculated using CalcuSyn 2.11 software (Biosoft, Cambridge, UK), and Isobologram analysis was performed. The CI value of less than 0.9 was determined to be a synergistic effect, the CI value of 0.9 or more and less than 1.1 was determined to be an additive effect, and the CI value of 1.1 or more was determined to be an antagonistic effect.

[2] = system: glioblastoma transplanted tumor; experiment: In vivo antitumor effect in a mouse glioblastoma transplantation model (luciferase imaging); conditions: C57BL6J mouse, 10 mg/kg intraperitoneally three times a week, three weeks after transplantation; FIG. 3
Experimental: According to the method described in a literature (Tanigawa S, et al. Cancer Gene Therapy (2021). https://doi.org/10.1038/s41417-020-00282-5), murine glioblastoma stem cells introduced with the Luciferase gene were established, and cultured as neurosphere cells in a 5% CO2 incubator at 37° C. using Neurobasal medium supplemented with B27 and N2 supplements (Gibco/Thermo Fisher Scientific, Waltham, MA, USA) and 10 ng/mL of EGF and bFGF (R&D Systems, Minneapolis, MN, USA). The neurospheres were made into a single cell suspension by Accutase (Innovative Cell Technologies, San Diego, CA, USA) treatment, and 1×10^3 cells suspended in 2 μL of PBS were transplanted into the cerebrum of a 6-week-old male C57BL6J mouse (Oriental Bioservice, Kyoto, Japan) fixed on a Stereotaxic Instrument (51730D; Stoelting Co., Wood Dale, IL, USA) using a 30-gauge Hamilton syringe with autoinjector (Legato130; KD Scientific, Holliston, MA, USA). […] Three weeks after cell transplantation, D-luciferin was administered intraperitoneally at a dose of 150 mg/kg and in vivo tumor size was evaluated using the IVIS Lumina XR imaging system (Summit Pharmaceuticals International, Tokyo, Japan).

[3] = system: human colon cancer SW48 cells; experiment: Proliferation suppressive action on human colon cancer SW48 cells (Trypan blue viable cell count); assay type: cell-based; conditions: 500 nM, 3 days; FIG. 4
Experimental: Human colon cancer SW48 cells were cultured in a 5% CO2 incubator at 37° C. using DMEM (FUJIFILM Wako Pure Chemical Corporation, Japan) supplemented with 10% bovine fetal serum (FBS, HyClone, GE Healthcare Life Sciences, Buckinghamshire, England) and 1% penicillin/streptomycin (FUJIFILM Wako Pure Chemical Corporation, respectively 100 units/mL, 100 μg/mL). SW48 cells were suspended in trypsin (Lonza, Walkersville, MD, USA), and 1×10^5 cells were seeded in a 6-well dish (TPP, Trasadingen, Switzerland). After 24 hr, a group of the compounds of the present invention (compound (I-4), compound (I-5), and compound (I-10)) diluted with a culture medium to a final concentration of 500 nM was allowed to act for 3 days. Proliferation of these cells was evaluated using Trypan blue (FUJIFILM Wako Pure Chemical Corporation, Japan) staining method and counting the number of viable cells using a Countess II automatic cell counter (Thermo Fisher Scientific, Waltham, MA).

[4] = system: AMP/ATP ratio of human colon cancer SW48 cells; experiment: AMP/ATP ratio increasing action on human colon cancer SW48 cells (AMP Glo / Cell Titer Glo); assay type: cell-based; conditions: 500 nM and 1 μM, 2 days; FIG. 5
Experimental: Human colon cancer SW48 cells were cultured in a 5% CO2 incubator at 37° C. using DMEM (FUJIFILM Wako Pure Chemical Corporation, Japan) supplemented with 10% bovine fetal serum (FBS, HyClone, GE Healthcare Life Sciences, Buckinghamshire, England) and 1% penicillin/streptomycin (FUJIFILM Wako Pure Chemical Corporation, respectively 100 units/mL, 100 μg/mL). SW48 cells were suspended in trypsin (Lonza, Walkersville, MD, USA), and 1×10^5 cells were seeded in a 6-well dish (TPP, Trasadingen, Switzerland). After 24 hr, the cells were treated with the compound of the present invention (compound (I-5)) diluted with a culture medium to final concentrations of 500 nM and 1 μM and allowed to act for 2 days. Intracellular AMP was measured with the AMP Glo assay kit (Promega, Madison, WI, USA), and intracellular ATP was measured with the Cell Titer Glo Luminescent Cell Viability Assay Kit (Promega, Madison, WI, USA) using a SYNERGY HT (BioTek Instruments, Inc. Winooski, VT, USA), and the AMP/ATP ratio was calculated.

[5] = system: phosphorylated AMPK; experiment: Phosphorylated AMPK increasing action on human colon cancer SW48 cells (Western blot, phospho-AMPKα Thr172); assay type: cell-based; conditions: 100 nM, 2 days; FIG. 6
Experimental: Human colon cancer SW48 cells were cultured in a 5% CO2 incubator at 37° C. using DMEM (FUJIFILM Wako Pure Chemical Corporation, Japan) supplemented with 10% bovine fetal serum (FBS, HyClone, GE Healthcare Life Sciences, Buckinghamshire, England) and 1% penicillin/streptomycin (FUJIFILM Wako Pure Chemical Corporation, respectively 100 units/mL, 100 μg/mL). SW48 cells were suspended in trypsin (Lonza, Walkersville, MD, USA), and 1×10^5 cells were seeded in a 6-well dish (TPP, Trasadingen, Switzerland). After 24 hr, the cells were treated with the compounds of the present invention (compound (I-4), compound (I-5), and compound (I-10)) diluted with a culture medium to a final concentration of 100 nM and allowed to act for 2 days. Cellular proteins were dissolved in 1% SDS buffer supplemented with a protease inhibitor cocktail mix (Nacalai Tesque, Kyoto, Japan), and SDS-PAGE was performed. After transferring to PVDF membrane (Millipore, Billerica, MA, USA), Western blot analysis was performed using anti-phospho-AMPKα (Thr172, 1:1000, #2535; CST) antibody. GAPDH protein was analyzed as a loading control.

[6] = system: human colon cancer SW48 transplanted tumors; experiment: In vivo antitumor effect in a human colon cancer SW48 cell subcutaneous transplantation model; design: species or system mouse; conditions: CB17 SCID mice, 20 mg/kg intraperitoneally every day from 4 days after transplantation, 3.5 weeks; FIG. 7(A),(B)
Experimental: (§1) According to the method described in a literature (Ii H, et al. ChemMedChem. (2018) 13(2):155-163), human colon cancer SW48 cells were cultured in a 5% CO2 incubator at 37° C. using DMEM (FUJIFILM Wako Pure Chemical Corporation, Japan) supplemented with 10% bovine fetal serum (FBS, HyClone, GE Healthcare Life Sciences, Buckinghamshire, England) and 1% penicillin/streptomycin (FUJIFILM Wako Pure Chemical Corporation, respectively 100 units/mL, 100 μg/mL). SW48 cells were suspended in trypsin (Lonza, Walkersville, MD, USA), and 3×10^6 cells were suspended in 100 μL of PBS/Matrigel (1:1, Corning, Corning, NY, USA), and subcutaneously injected into 6-week-old male or female CB17 SCID mice (Japan Clea, Osaka, Japan) to create a subcutaneous transplantation tumor model. The compound of the present invention was dissolved in 10% ethanol (FUJIFILM Wako Pure Chemical Corporation, Japan), 10% dimethyl sulfoxide (Nacalai Tesque, Kyoto, Japan), 10% Cremophor EL (Sigma Chemical, St. Louis, MO, USA), and 70% saline (Nacalai Tesque, Kyoto, Japan), and administered intraperitoneally at a dose of 20 mg/kg every day from 4 days after transplantation. The major diameter and minor diameter were measured twice a week using calipers, and the tumor volume was calculated by 0.5× major diameter×minor diameter^2. 3.5 Weeks after cell transplantation, the tumor was removed and the weight was measured. […]

[7] = Body weight change on daily intraperitoneal administration in the SW48 transplantation model; assay type: in vivo, mouse; conditions: CB17 SCID mice, 20 mg/kg daily intraperitoneally for 3.5 weeks; FIG. 7(C)
Experimental: as §1

[8] = system: phosphorylated AMPK; experiment: Phosphorylated AMPK increasing action on human lung cancer A549 cells (Western blot, phospho-AMPKα Thr172); assay type: cell-based; conditions: 100 nM to 1 μM, 3 days; FIG. 9
Experimental: Human lung cancer A549 cells were cultured in a 5% CO2 incubator at 37° C. using DMEM (FUJIFILM Wako Pure Chemical Corporation, Japan) supplemented with 10% bovine fetal serum (FBS, HyClone, GE Healthcare Life Sciences, Buckinghamshire, England) and 1% penicillin/streptomycin (FUJIFILM Wako Pure Chemical Corporation, respectively 100 units/mL, 100 μg/mL). A549 cells were suspended in trypsin (Lonza, Walkersville, MD, USA), and 1×10^5 cells were seeded in a 6-well dish (TPP, Trasadingen, Switzerland). After 24 hr, they were treated with the compound of the present invention diluted in a culture medium to final concentrations of 100 nM to 1 μM and allowed to act for 3 days. Cellular proteins were dissolved in 1% SDS buffer supplemented with a protease inhibitor cocktail mix (Nacalai Tesque, Kyoto, Japan), and SDS-PAGE was performed. After transferring to PVDF membrane (Millipore, Billerica, MA, USA), Western blot analysis was performed using anti-phospho-AMPKα (Thr172, 1:1000, #2535; CST) antibody. GAPDH protein was analyzed as a loading control.

CCCCCCCCCCOCCOCCOCCOCCCCCCCCCCCCNC(=O)c1ccsc1 [I-5, N-(13,16,19,22-tetraoxadotriacontan-1-yl)thiophene-3-carboxamide]
combination effect with temozolomide on proliferation of U251 cells (combination index, isobologram) [1]: synergistically potentiates the proliferation suppressive ability of temozolomide | in vivo tumor size of transplanted glioblastoma [2]: suppresses proliferation of glioblastoma transplanted tumor | proliferation of human colon cancer SW48 cells (number of viable cells) [3]: proliferation suppressive action | AMP/ATP ratio of SW48 cells [4]: has action to increase the AMP/ATP ratio | phosphorylated AMPK in SW48 cells [5]: phosphorylated AMPK increasing action | tumor volume and tumor mass of SW48 subcutaneous transplanted tumors [6]: suppresses proliferation of human colon cancer SW48 transplanted tumors | body weight change [7]: no significant body weight change

COCCOCCOCCOCCCCCCCCCCCCNC(=O)c1csc(C)c1 [I-10, N-(13,16,19,22-tetraoxatricosan-1-yl)-5-methylthiophene-3-carboxamide]
proliferation of human colon cancer SW48 cells (number of viable cells) [3]: proliferation suppressive action | phosphorylated AMPK in SW48 cells [5]: phosphorylated AMPK increasing action

CCCCCCCCCOCCOCCOCCOCCCCCCCCCCCCNC(=O)c1ccsc1 [I-4, N-(13,16,19,22-tetraoxahentriacontan-1-yl)thiophene-3-carboxamide]
proliferation of human colon cancer SW48 cells (number of viable cells) [3]: proliferation suppressive action | phosphorylated AMPK in SW48 cells [5]: phosphorylated AMPK increasing action

CCCCCCCCCCOCCOCCOCCOCCOCCCCCCCCCNC(=O)c1ccsc1 [I-16, N-(10,13,16,19,22-pentaoxadotriacontan-1-yl)thiophene-3-carboxamide]
phosphorylated AMPK in A549 cells [8]: phosphorylated AMPK increasing action
